Assay results reported in ChEMBL document CHEMBL1201862, “PubChem BioAssay data set” (2004).
Active and inactive are the calls of the source.

How the values were obtained:
[1] = target: T1, Low molecular weight phosphotyrosine protein phosphatase (Homo sapiens, UniProt P24666); assay type: functional; details: read-out: IC50_Mean;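 note: Dose-response confirmation assay measuring inhibition of LMPTP enzyme activity by fluorescence intensity read-out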
T1 sequence (P24666 whole entry): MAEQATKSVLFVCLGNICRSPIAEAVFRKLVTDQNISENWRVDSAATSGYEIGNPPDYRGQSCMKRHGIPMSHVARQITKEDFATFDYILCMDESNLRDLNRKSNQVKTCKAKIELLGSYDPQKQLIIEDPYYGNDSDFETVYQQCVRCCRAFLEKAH

[2] = target: T2, ATP-dependent translocase ABCB1 (Homo sapiens, UniProt P08183); assay: ABCB1 efflux inhibitor potency, dose response, Jurkat-DNR cells, JC-1, flow cytometry, set 2 (AID 504569); assay type: functional; details: read-out: EC50_MICROM_;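 note: potency of pump inhibitors that raise cellular JC-1 green fluorescence up to the nicardipine level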
T2 sequence (P08183 whole entry): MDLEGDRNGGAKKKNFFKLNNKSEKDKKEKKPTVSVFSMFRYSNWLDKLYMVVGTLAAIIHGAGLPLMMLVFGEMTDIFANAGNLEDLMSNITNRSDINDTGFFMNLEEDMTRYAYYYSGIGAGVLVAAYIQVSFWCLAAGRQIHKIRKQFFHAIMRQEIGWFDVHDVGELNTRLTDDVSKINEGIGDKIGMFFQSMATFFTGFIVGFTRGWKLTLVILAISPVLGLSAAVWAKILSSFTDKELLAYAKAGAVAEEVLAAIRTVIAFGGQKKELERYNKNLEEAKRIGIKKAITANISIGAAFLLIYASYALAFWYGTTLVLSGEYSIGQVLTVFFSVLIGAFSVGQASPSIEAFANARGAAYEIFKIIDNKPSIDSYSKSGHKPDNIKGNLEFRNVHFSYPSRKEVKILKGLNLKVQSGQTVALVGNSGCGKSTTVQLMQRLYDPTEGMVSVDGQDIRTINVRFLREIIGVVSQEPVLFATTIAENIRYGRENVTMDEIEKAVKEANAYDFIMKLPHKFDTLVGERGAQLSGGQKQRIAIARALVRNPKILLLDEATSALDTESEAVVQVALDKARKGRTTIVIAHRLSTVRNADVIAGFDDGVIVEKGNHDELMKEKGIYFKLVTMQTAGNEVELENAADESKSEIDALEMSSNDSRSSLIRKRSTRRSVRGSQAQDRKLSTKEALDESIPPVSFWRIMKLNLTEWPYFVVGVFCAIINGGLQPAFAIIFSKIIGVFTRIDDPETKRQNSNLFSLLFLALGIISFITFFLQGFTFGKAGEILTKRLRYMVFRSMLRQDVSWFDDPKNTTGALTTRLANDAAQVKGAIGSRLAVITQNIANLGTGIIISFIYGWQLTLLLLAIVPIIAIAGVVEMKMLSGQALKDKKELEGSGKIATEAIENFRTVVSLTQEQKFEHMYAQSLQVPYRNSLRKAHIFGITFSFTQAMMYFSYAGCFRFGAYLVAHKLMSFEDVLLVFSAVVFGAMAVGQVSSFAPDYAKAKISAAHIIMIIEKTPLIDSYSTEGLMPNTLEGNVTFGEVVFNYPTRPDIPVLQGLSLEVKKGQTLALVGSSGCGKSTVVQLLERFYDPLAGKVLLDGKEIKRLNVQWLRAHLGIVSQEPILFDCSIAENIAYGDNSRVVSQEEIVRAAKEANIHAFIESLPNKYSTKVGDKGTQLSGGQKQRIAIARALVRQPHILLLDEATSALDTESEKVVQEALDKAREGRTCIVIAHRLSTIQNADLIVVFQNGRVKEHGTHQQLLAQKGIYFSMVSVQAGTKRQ

[3] = target: T2, ATP-dependent translocase ABCB1; assay: ABCG2 efflux pump inhibitor potency, dose response, Ig-MXP3 cells, JC-1, flow cytometry, set 2 (AID 504566); assay type: functional; details: read-out: EC50_MICROM_;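 note: flow cytometry median green fluorescence of retained JC-1 dye; potency of efflux pump inhibition measured as rising substrate retention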
[4] = target: T3, Adenosylmethionine-8-amino-7-oxononanoate aminotransferase (Mycobacterium tuberculosis, UniProt P9WQ81); assay: Mycobacterium tuberculosis BioA enzyme inhibitor Measured in Biochemical System Using Plate Reader - 2163-02_Inhibitor_Dose_CherryPick_Activity.; assay type: functional, Mycobacterium tuberculosis UT205
T3 sequence (P9WQ81 whole entry): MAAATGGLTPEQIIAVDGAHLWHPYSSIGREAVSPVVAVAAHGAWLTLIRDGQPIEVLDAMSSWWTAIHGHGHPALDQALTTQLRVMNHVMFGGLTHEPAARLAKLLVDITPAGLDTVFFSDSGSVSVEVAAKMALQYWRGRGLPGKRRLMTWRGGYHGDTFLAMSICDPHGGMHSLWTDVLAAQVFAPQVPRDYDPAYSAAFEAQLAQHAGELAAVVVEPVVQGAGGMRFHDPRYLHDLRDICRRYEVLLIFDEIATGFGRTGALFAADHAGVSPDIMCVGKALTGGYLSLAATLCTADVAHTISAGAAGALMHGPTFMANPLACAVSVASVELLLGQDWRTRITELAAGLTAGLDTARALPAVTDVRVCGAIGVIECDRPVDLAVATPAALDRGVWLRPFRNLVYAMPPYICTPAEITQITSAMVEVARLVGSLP

[5] = cytotoxicity in HEK293 cells, dose response, cytotoxicity control, cell-based, plate reader, cherry-pick (AID 651899); assay type: functional
[6] = cells; assay type: functional, cell-based
[7] = target: T4, Nuclear receptor subfamily 0 group B member 1 (Homo sapiens, UniProt P51843); assay type: functional, cell-based;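 note: HEK293T cells transfected with SF-1 and DAX-1 plus StAR promoter luciferase reporter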
T4 sequence (P51843 whole entry): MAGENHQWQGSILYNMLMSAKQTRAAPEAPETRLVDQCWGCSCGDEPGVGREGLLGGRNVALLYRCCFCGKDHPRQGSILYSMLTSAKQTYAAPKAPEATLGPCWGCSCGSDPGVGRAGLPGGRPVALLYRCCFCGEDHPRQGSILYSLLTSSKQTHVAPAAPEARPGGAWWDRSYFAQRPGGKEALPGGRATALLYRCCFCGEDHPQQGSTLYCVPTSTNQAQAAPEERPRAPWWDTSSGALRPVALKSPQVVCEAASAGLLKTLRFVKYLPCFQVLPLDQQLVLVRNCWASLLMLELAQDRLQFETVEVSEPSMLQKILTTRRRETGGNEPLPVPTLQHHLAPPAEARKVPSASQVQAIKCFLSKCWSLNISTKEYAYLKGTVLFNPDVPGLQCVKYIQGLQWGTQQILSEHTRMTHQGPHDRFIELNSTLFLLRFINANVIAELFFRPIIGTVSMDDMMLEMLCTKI

[8] = system: Vero; assay: Vero cell toxicity, dose response, cytotoxicity control, plate reader, cherry-pick samples (AID 687020); assay type: functional, cell-based; details: Chlorocebus sabaeus
[9] = intracellular Trypanosoma cruzi inhibitors in host cells – cell-based, plate reader, cherry-pick samples, set 3, dose response (AID 651818); assay type: functional;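 note: compounds incubated with infected cells for about four days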
[10] = target: Arf-GAP with SH3 domain, ANK repeat and PH domain-containing protein 1 (Homo sapiens, UniProt Q9ULH1); assay type: functional;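 note: biochemical fluorescence polarization dose–response screen measuring inhibition of ASAP1; ASAP1 GAP domain stimulating GTP hydrolysis by truncated human ARF1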
Arf-GAP with SH3 domain, ANK repeat and PH domain-containing protein 1, sequence (Q9ULH1 whole entry, the tested form may be a part): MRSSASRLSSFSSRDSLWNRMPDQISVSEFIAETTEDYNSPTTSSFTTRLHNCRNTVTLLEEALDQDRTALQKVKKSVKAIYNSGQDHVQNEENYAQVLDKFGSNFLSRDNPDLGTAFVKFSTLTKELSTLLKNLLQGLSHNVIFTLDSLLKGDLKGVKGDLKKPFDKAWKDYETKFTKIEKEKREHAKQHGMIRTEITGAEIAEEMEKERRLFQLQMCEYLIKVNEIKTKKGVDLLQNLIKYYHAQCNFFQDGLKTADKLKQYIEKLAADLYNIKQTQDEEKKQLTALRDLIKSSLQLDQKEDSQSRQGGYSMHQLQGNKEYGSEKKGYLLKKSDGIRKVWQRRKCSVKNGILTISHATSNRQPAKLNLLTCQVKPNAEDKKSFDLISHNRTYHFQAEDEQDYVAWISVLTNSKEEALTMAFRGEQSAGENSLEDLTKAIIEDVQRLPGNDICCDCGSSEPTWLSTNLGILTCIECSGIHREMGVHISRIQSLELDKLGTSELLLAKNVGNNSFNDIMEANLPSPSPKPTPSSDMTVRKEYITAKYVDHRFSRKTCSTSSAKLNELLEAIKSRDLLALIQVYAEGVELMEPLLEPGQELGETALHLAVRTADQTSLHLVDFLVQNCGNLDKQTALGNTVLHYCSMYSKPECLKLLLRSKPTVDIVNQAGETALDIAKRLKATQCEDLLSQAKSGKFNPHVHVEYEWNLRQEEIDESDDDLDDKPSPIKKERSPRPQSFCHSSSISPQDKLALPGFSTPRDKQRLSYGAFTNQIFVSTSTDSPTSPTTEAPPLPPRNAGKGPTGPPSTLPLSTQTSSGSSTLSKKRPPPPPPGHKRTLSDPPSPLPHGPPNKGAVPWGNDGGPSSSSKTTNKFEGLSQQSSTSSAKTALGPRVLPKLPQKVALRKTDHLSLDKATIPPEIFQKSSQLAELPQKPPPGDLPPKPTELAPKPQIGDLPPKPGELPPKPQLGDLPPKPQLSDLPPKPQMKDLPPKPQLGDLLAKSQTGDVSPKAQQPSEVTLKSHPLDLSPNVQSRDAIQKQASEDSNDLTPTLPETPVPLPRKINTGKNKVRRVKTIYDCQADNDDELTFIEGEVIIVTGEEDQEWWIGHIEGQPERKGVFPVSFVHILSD

[11] = target: Protein Wnt-3a (Mus musculus, UniProt P27467); assay: Wnt3a-driven reporter signaling inhibition, dose response, selectivity assay for Gli-SUFU antagonist project, Wnt-LIGHT cells, luminescence (AID 651570); assay type: functional; details: read-out: IC50_Mean;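 note: Wnt-LIGHT reporter cells stimulated with conditioned medium from Wnt3a-producing cells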
[12] = target: Hepatocyte nuclear factor 4-alpha (Homo sapiens, UniProt P41235); assay type: functional, cell-based;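 note: biochemical luminescence-based dose-response counterscreen measuring inhibition of HNF4 dimerization, run alongside a screen for blockers of ABHD5–perilipin-5 interaction; split luciferase complementation of HNF4 fusion proteins in cell lysate measuring dimerization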
[13] = target: T5, Interleukin-8 (Homo sapiens, UniProt P10145); assay: Dose Response confirmation of uHTS small molecule hits for cystic fibrosis induced NFkb Inhibitors in a TNFa-induced IL8 counterscreen.; assay type: functional; details: read-out: IC50_Mean
T5 sequence (P10145 whole entry): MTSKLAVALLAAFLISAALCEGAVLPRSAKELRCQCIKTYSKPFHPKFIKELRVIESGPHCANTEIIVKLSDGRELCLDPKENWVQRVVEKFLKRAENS

[14] = target: T5, Interleukin-8; assay: Dose Response confirmation of uHTS small molecule hits for cystic fibrosis induced NFkb Inhibitors in a PAF-induced IL8 counterscreen.; assay type: functional; details: read-out: IC50_Mean
[15] = target: T6, Beta-lactamase (Pseudomonas aeruginosa, UniProt Q79MP6); assay: IMP-1 metallo-beta-lactamase inhibitors, dose response, selectivity assay for VIM-2 inhibitor project, biochemical, epi-absorbance (AID 1920)
T6 sequence (Q79MP6 whole entry): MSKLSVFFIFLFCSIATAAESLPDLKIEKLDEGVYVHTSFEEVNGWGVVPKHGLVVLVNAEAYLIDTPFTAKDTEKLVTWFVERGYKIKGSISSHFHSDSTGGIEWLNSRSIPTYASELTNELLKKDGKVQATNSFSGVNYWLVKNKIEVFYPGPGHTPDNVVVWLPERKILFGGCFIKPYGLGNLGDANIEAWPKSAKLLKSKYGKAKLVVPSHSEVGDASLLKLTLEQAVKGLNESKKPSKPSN

[16] = inhibitors of SNCA 5'UTR-driven reporter translation, confirmation, H4 neuroglioma cells, luminescence (AID 1988); assay type: functional, cell-based
[17] = target: T6, Beta-lactamase; assay: […] counterscreen for selective VIM-2 inhibitors: dose response biochemical high throughput screening assay to identify inhibitors of IMP-1 metallo-beta-lactamase.
[18] = target: DNA dC->dU-editing enzyme APOBEC-3G (Homo sapiens, UniProt Q9HC16); assay: Dose Response confirmation of small molecule APOBEC3G DNA Deaminase Inhibitors via a fluorescence-based single-stranded DNA deaminase assay. [Related pubchem assays (depositor defined):AID493012, AID493028]; assay type: functional
DNA dC->dU-editing enzyme APOBEC-3G, sequence (Q9HC16 whole entry): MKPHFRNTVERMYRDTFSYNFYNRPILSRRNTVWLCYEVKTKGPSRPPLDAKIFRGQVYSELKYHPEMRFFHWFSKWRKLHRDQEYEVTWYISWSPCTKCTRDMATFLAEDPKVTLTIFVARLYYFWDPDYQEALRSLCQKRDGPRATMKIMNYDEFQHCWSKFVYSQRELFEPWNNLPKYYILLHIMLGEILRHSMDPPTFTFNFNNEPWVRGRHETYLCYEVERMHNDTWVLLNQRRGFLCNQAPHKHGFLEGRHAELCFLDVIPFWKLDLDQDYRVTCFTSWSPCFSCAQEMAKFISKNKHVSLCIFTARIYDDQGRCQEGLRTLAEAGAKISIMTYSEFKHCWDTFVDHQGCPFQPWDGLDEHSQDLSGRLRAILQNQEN

[19] = target: Beta-lactamase (Salmonella choleraesuis (strain SC-B67), UniProt Q5J463); assay: Epi-absorbance-based counterscreen for selective VIM-2 inhibitors: dose response biochemical high throughput screening assay to identify inhibitors of TEM-1 serine-beta-lactamase.
[20] = inhibitors of firefly luciferase expression or activity, dose response, H4 neuroglioma cells, luminescence (AID 1990); assay type: functional, cell-based
[21] = Luminescence Cell-Based Dose Response HTS to Identify Inhibitors of 5'UTR Stem-Loop Driven Prion Protein mRNA Translation in H4 Neuroglioblastoma Cells. [Related pubchem assays: 1827 (Project Summary), 1813 (Primary HTS)]; assay type: functional
[22] = target: DNA dC->dU-editing enzyme APOBEC-3A (Homo sapiens, UniProt P31941); assay: APOBEC3A DNA deaminase inhibitors, dose response, biochemical (AID 504722); assay type: functional
DNA dC->dU-editing enzyme APOBEC-3A, sequence (P31941 whole entry): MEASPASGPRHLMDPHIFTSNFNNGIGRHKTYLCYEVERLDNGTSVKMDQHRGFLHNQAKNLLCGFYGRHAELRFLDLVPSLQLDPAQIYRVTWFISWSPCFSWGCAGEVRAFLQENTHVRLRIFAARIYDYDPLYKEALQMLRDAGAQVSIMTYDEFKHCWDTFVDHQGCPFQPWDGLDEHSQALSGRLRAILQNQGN

[23] = target: Caspase-8 (Homo sapiens, UniProt Q14790); assay: caspase-8 inhibition counter-screen, dose response, selectivity assay for caspase-6 inhibitor project, biochemical, Z-IETD-R110 fluorescence, cherry-picked samples (AID 743294)
Caspase-8, sequence (Q14790 217-374 limits assumed): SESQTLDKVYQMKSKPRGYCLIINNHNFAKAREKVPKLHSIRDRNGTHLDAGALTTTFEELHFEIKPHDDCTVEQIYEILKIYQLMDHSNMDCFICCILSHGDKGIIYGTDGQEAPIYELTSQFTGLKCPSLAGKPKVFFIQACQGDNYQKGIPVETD
Caspase-8, sequence (Q14790 385-479 limits assumed): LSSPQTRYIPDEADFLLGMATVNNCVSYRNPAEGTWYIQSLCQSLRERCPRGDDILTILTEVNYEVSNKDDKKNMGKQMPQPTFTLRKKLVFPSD

[24] = target: T7, Small ubiquitin-related modifier 1 (Homo sapiens, UniProt P63165); assay: inhibitors of SUMO1 partner interactions, dose response, biochemical, FRET (AID 624383); assay type: functional; details: read-out: IC50_Mean
T7 sequence (P63165 whole entry): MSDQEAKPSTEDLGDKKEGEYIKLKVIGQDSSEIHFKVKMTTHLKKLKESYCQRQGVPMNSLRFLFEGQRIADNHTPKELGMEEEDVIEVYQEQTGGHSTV

[25] = target: T7, Small ubiquitin-related modifier 1; assay: inhibitors of SUMO1 peptide binding, dose response, biochemical, fluorescence polarization, uHTS hits (AID 624382); assay type: functional; details: read-out: IC50_Mean
[26] = target: T8, Caspase-6 (Homo sapiens, UniProt P55212); assay: human caspase-6 inhibitors, dose response, biochemical, VEID-R110 fluorescence, cherry-pick (AID 720632)
T8 sequence (P55212 whole entry): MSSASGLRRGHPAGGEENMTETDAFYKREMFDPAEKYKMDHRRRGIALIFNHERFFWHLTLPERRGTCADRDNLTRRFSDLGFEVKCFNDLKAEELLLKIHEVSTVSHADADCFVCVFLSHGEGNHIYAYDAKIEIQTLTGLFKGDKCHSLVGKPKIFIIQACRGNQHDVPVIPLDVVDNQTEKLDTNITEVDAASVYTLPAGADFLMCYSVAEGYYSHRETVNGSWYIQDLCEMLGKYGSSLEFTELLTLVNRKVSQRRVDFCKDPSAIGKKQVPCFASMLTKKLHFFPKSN

[27] = target: Caspase-7 (Homo sapiens, UniProt P55210); assay: human caspase-7 inhibitors, dose response, selectivity assay for caspase-6 inhibitor project, biochemical, DEVD-R110 fluorescence, cherry-pick (AID 743295)
Caspase-7, sequence (P55210 24-198 limits assumed): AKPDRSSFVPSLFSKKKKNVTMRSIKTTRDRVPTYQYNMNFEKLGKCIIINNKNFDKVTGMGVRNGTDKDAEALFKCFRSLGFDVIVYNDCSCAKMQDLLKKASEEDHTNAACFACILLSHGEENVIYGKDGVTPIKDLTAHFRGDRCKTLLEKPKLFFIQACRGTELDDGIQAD
Caspase-7, sequence (P55210 207-303 limits assumed): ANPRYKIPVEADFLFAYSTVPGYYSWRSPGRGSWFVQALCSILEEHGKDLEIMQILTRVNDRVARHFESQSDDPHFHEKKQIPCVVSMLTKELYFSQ

[28] = target: T9, Aminopeptidase N (Plasmodium falciparum FcB1/Columbia, UniProt O96935); assay: P. falciparum M1AAP inhibitors, biochemical, fluorogenic H-Leu-NHMec substrate, 1536-well (AID 1445); set-up: species or system Plasmodium falciparum 3D7, 3D7
T9 sequence (O96935 whole entry): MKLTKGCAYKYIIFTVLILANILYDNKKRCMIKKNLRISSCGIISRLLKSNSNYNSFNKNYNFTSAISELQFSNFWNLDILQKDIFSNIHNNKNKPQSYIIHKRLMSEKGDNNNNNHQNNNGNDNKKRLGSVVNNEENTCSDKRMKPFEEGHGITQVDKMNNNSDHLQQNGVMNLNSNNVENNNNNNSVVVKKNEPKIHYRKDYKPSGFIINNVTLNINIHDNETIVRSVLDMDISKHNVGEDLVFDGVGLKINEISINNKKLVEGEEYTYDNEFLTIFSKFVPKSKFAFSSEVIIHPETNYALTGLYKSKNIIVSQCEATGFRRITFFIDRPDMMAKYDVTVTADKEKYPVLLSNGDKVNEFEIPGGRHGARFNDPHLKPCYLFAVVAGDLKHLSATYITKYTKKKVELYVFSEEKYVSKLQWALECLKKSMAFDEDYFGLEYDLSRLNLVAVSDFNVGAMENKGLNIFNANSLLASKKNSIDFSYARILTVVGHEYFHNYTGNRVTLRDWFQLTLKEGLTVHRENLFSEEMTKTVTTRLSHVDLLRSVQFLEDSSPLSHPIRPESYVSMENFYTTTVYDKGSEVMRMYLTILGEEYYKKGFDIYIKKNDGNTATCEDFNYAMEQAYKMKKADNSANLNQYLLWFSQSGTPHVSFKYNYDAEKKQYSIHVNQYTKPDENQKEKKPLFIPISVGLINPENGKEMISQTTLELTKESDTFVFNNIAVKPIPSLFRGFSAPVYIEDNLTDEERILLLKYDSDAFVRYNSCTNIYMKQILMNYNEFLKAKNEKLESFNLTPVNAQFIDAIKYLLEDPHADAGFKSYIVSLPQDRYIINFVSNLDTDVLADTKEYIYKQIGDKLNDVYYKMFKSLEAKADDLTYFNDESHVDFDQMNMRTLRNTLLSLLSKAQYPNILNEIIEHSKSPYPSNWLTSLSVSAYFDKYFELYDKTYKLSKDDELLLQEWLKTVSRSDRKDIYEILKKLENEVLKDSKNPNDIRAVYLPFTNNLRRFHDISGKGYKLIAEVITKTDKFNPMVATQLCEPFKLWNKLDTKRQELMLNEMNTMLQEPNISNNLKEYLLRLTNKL

[29] = target: Genome polyprotein (dengue virus type 2, UniProt P29990); assay: Dengue-2 NS5 methyltransferase inhibitors, primary screen, biochemical, confirmation dose response (AID 588689); assay type: functional
Genome polyprotein, sequence (P29990 2492-3391 limits assumed): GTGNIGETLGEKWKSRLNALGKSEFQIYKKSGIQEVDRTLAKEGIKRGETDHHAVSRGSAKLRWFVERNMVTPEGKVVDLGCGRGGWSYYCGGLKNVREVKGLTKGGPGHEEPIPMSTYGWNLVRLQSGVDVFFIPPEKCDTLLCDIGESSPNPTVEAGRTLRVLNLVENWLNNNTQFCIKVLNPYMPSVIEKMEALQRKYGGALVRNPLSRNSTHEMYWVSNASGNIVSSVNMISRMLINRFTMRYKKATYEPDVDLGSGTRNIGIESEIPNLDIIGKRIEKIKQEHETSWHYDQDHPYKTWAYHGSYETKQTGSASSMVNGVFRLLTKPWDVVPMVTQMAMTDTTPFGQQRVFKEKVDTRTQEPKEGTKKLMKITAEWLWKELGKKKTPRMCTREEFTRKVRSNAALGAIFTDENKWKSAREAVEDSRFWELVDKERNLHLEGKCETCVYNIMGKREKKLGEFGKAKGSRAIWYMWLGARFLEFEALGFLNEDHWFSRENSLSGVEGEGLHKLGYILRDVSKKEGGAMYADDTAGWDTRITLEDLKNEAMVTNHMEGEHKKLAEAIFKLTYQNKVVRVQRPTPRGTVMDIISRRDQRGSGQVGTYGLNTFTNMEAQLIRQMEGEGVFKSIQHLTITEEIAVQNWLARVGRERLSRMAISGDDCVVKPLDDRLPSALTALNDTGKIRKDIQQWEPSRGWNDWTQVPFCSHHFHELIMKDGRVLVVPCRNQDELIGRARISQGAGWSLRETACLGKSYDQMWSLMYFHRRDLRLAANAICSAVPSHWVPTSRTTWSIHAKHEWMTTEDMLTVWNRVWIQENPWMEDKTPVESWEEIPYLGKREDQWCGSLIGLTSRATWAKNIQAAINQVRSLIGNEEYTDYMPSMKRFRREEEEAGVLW

CCn1cc(C(=O)O)c(=O)c2cc(F)c(N3CCN(C(=S)NC(=O)c4c(OC)cccc4OC)CC3)cc21
IC50 [1]: 14 µM (active)

O=C(c1cccnc1)N1CCN(c2cc(-c3ccccc3)nc3cc(-c4cccc(Cl)c4)nn23)CC1
EC50 [2]: 0.52 µM (active)
EC50 [3]: 0.37 µM (active)

COc1ccccc1S(=O)(=O)N1CC[C@@H]2[C@H](CO)Nc3ccc(-c4ccccc4)cc3[C@@H]21
AC50 [4]: 16.5 µM (active)
AC50 [5]: 19.3 µM (active)

COc1cc(OC)c2c(=O)cc(-c3ccccc3)oc2c1 [CHRYSIN DIMETHYL ETHER]
IC50 [6]: > 67.6 µM (inactive)
IC50 [7]: > 67.6 µM (inactive)

Cc1c(CCC(=O)NCCCN2CCCC2=O)c(=O)oc2cc(O)ccc12
AC50 [8]: 30.1 µM (active)

C[C@@H]1CN([C@@H](C)CO)C(=O)Cc2cc(NS(=O)(=O)c3ccc(Cl)cc3)ccc2O[C@@H]1CN(C)Cc1ccc(Cl)c(Cl)c1
AC50 [9]: 5.1 µM (active)

O=C(/C=C/c1ccco1)Nc1ccc(-c2nc3ccccc3[nH]2)cc1
IC50 [10]: 14 µM (inactive)
IC50 [11]: 14.6 µM (active)

O=C(NC1CCCCC1)C(c1ccccc1)n1c(=O)c(-c2ccco2)nc2ccccc21 (centres undefined)
IC50 [12]: 0.817 µM (active)

O=C(Nc1ccc(N2CCN(C(=O)c3ccccc3F)CC2)cc1)c1cncc(Br)c1
IC50 [13]: > 79 µM (inactive)
IC50 [14]: 6.77 µM (active)

Sc1nnc(-c2ccccc2)n1C1C=CCCC1 (centres undefined)
IC50 [15]: > 59.6 µM (inactive)
EC50 [16]: > 120 µM (not active)
IC50 [17]: > 59.6 µM (inactive)
IC50 [18]: 5.37 µM (active)
IC50 [19]: > 59.6 µM (inactive)
EC50 [20]: > 120 µM (not active)
EC50 [21]: 104 µM (active)
IC50 [22]: > 100 µM (inactive)

COc1cc(C)c2c(c1C=O)Oc1c(c(C)c(O)c3c1C(O)OC3=O)OC2=O (centres undefined) [STICTIC ACID]
AC50 [23]: > 70 µM (inactive)
IC50 [24]: 7.69 µM (active)
IC50 [25]: > 66.6 µM (inactive)
AC50 [26]: 0.817 µM (active)
AC50 [27]: 44.3 µM (active)
IC50 [28]: 27.3 µM (active)
IC50 [29]: 71.2 µM (active)
